# Reference: ChEMBL document CHEMBL4184197 (Bioorg Med Chem, 2018)
# Key:
# [1] = species: Homo sapiens; test: Binding affinity to P2Y receptor (unknown origin) at 10 uM relative to control
# [2] = target: MAO-A (Homo sapiens, UniProt P21397); test: Binding affinity to human MAO-A at 10 uM after 20 mins by spectrophotometric analysis relative to control; details: read-out: Activity
# [3] = tested on: Salmonella typhimurium; test: Mutagenicity in Salmonella typhimurium TA100 in absence of rat liver S9 fraction by Ames test; assay type: toxicity, organism-based; details: salmonella enterica subsp. enterica serovar typhimurium
# [4] = species: Homo sapiens; test: Binding affinity to chloride channel (unknown origin) at 10 uM relative to control
# [5] = target: Beta-2 adrenergic receptor (Homo sapiens) (UniProt P07550); test: Binding affinity to recombinant human beta2 receptor at 10 uM after 120 mins by scintillation counting analysis relative to control
# [6] = target: Endothelin receptor type B (Homo sapiens) (UniProt P24530); test: Binding affinity to recombinant human ETB receptor at 10 uM after 120 mins by scintillation counting analysis relative to control
# [7] = target: Cholecystokinin receptor type A (Homo sapiens) (UniProt P32238); test: Binding affinity to recombinant human CCK1 at 10 uM after 60 mins by scintillation counting analysis relative to control
# [8] = target: cGMP-inhibited 3',5'-cyclic phosphodiesterase 3A (Homo sapiens) (UniProt Q14432); test: Binding affinity to recombinant human PDE3A at 10 uM after 20 mins by scintillation counting analysis relative to control
# cGMP-inhibited 3',5'-cyclic phosphodiesterase 3A (Homo sapiens), sequence (Q14432 whole entry): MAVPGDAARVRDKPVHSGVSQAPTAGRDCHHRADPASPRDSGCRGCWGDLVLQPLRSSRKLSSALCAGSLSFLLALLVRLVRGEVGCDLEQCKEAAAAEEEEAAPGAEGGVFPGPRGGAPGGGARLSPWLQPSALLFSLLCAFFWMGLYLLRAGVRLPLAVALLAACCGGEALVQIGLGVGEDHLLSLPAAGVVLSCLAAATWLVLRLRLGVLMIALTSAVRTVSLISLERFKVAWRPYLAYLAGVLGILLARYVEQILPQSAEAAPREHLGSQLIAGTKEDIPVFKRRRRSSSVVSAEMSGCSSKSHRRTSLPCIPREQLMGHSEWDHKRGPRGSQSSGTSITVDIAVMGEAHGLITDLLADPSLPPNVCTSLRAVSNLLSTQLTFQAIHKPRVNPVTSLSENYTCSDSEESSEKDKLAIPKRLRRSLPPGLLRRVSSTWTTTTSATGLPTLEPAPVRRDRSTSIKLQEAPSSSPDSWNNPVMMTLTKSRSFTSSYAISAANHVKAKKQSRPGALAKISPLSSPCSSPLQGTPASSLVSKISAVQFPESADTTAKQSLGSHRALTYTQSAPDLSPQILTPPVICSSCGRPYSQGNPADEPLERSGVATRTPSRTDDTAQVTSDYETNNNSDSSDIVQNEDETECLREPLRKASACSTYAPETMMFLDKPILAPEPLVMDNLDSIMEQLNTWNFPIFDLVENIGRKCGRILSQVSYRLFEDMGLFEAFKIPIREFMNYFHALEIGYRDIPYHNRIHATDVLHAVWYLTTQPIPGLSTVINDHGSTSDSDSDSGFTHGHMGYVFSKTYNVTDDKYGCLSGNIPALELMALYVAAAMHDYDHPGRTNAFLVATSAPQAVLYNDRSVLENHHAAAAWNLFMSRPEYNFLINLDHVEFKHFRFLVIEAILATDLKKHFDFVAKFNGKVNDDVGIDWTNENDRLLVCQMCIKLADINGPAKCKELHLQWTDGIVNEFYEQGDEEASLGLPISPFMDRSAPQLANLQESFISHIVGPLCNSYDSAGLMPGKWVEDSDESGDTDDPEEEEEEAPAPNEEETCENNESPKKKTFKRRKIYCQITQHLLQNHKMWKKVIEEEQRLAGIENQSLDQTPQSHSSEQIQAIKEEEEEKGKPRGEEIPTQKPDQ
# [9] = target: Prostaglandin G/H synthase 1 (Homo sapiens) (UniProt P23219); test: Binding affinity to recombinant human COX1 at 10 uM after 3 mins by fluorescence assay relative to control
# [10] = target: Muscarinic acetylcholine receptor M4 (Homo sapiens) (UniProt P08173); test: Binding affinity to recombinant human muscarinic M4 receptor at 10 uM after 60 mins by scintillation counting analysis relative to control
# [11] = target: Prostaglandin E2 receptor EP4 subtype (Homo sapiens) (UniProt P35408); test: Binding affinity to recombinant human EP4 receptor at 10 uM after 120 mins by scintillation counting analysis relative to control
# [12] = target: Vasoactive intestinal polypeptide receptor 1 (Homo sapiens) (UniProt P32241); test: Binding affinity to recombinant human VPAC1 receptor at 10 uM after 60 mins by scintillation counting analysis relative to control
# Vasoactive intestinal polypeptide receptor 1 (Homo sapiens), sequence (P32241 whole entry): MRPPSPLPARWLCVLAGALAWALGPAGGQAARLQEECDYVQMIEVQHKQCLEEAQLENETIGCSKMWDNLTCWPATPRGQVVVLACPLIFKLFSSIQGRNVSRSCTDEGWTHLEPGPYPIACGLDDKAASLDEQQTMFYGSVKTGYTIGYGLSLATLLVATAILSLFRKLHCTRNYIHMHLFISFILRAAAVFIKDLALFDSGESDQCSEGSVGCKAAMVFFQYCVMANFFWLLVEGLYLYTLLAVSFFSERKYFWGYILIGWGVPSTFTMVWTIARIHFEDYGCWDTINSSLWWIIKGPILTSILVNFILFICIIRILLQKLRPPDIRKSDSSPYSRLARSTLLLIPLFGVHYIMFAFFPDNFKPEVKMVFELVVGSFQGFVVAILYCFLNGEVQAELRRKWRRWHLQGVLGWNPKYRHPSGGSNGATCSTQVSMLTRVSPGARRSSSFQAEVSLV
# [13] = target: Translocator protein (Homo sapiens) (UniProt P30536); test: Binding affinity to peripheral-type benzodiazepine receptor (unknown origin) at 10 uM relative to control
# Translocator protein (Homo sapiens), sequence (P30536 whole entry): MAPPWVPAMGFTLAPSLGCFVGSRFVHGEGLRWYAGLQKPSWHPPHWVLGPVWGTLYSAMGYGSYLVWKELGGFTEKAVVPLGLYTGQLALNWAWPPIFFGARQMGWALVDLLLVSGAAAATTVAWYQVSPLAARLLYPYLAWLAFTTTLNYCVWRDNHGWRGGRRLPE
# [14] = species: Homo sapiens; test: Binding affinity to recombinant human dopamine receptor D4.4 at 10 uM after 60 mins by scintillation counting analysis relative to control
# [15] = target: Beta-1 adrenergic receptor (Homo sapiens) (UniProt P08588); test: Binding affinity to recombinant human beta1 receptor at 10 uM after 60 mins by scintillation counting analysis relative to control
# Beta-1 adrenergic receptor (Homo sapiens), sequence (P08588 whole entry, looked up): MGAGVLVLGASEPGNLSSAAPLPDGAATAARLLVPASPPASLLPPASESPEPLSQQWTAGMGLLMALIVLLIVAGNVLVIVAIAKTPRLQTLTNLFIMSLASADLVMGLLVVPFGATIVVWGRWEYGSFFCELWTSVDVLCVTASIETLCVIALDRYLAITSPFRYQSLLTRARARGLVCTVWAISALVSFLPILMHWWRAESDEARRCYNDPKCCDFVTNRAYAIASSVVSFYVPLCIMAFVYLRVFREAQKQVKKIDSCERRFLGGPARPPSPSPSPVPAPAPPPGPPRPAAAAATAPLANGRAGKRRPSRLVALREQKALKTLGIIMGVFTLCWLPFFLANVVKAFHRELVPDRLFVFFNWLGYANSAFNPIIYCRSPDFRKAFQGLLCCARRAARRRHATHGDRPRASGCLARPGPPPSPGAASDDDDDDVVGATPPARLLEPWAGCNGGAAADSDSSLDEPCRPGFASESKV
# [16] = target: Platelet-derived growth factor receptor (Mus musculus) (UniProt P05622+P26618); test: Binding affinity to mouse PDGFR at 10 uM after 180 mins by scintillation counting analysis relative to control; assay type: protein-complex assay
# [17] = target: Adrenergic receptor alpha-1 (Rattus norvegicus) (UniProt P15823+P23944+P43140); test: Binding affinity to rat alpha1 receptor at 10 uM after 60 mins by scintillation counting analysis relative to control; assay type: protein assay
# [18] = target: Adenosine receptor A3 (Homo sapiens) (UniProt P0DMS8); test: Binding affinity to recombinant human A3 receptor at 10 uM after 120 mins by scintillation counting analysis relative to control
# [19] = target: Nociceptin receptor (Homo sapiens) (UniProt P41146); test: Binding affinity to recombinant human NOP receptor at 10 uM after 60 mins by scintillation counting analysis relative to control
# [20] = target: Proto-oncogene tyrosine-protein kinase Src (Homo sapiens) (UniProt P12931); test: Binding affinity to recombinant human Src at 10 uM after 10 mins by LANCE assay relative to control
# [21] = target: Prostaglandin E2 receptor EP2 subtype (Homo sapiens) (UniProt P43116); test: Binding affinity to recombinant human EP2 receptor at 10 uM after 120 mins by scintillation counting analysis relative to control
# [22] = target: Endothelin-1 receptor (Homo sapiens) (UniProt P25101); test: Binding affinity to recombinant human ETA receptor at 10 uM after 120 mins by scintillation counting analysis relative to control
# Endothelin-1 receptor (Homo sapiens), sequence (P25101 whole entry): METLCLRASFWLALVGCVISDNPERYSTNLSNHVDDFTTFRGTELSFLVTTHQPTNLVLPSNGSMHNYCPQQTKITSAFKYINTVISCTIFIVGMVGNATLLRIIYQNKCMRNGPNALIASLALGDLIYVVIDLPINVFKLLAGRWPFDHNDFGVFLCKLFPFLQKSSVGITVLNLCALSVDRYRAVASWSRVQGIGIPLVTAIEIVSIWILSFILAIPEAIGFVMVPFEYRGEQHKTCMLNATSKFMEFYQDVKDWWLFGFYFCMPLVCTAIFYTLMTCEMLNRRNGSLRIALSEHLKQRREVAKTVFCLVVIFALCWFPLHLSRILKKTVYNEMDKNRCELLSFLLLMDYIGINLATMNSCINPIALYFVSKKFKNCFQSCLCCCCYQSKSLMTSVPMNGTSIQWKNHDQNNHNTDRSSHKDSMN
# [23] = target: Prostaglandin G/H synthase 2 (Homo sapiens) (UniProt P35354); test: Binding affinity to recombinant human COX2 at 10 uM after 5 mins by fluorescence assay relative to control
# Prostaglandin G/H synthase 2 (Homo sapiens), sequence (P35354 whole entry, looked up): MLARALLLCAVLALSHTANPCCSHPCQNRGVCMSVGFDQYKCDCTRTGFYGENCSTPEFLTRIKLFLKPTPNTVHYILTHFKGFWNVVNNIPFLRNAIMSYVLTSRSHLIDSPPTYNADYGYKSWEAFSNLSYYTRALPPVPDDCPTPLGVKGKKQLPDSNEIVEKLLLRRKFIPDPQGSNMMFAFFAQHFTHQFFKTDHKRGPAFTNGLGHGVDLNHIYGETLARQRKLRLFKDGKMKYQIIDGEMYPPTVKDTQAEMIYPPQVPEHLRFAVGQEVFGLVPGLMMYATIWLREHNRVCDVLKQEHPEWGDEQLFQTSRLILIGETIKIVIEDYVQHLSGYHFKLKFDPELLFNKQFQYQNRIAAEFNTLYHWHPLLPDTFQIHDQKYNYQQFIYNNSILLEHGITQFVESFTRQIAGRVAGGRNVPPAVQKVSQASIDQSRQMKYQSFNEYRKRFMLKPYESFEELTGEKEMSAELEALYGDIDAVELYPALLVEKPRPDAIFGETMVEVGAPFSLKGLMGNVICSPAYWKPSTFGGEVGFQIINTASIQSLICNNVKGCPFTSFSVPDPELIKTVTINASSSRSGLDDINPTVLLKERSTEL
# [24] = target: Neuropeptide Y receptor type 2 (Homo sapiens) (UniProt P49146); test: Binding affinity to human Y2 receptor at 10 uM after 60 mins by scintillation counting analysis relative to control
# Neuropeptide Y receptor type 2 (Homo sapiens), sequence (P49146 whole entry): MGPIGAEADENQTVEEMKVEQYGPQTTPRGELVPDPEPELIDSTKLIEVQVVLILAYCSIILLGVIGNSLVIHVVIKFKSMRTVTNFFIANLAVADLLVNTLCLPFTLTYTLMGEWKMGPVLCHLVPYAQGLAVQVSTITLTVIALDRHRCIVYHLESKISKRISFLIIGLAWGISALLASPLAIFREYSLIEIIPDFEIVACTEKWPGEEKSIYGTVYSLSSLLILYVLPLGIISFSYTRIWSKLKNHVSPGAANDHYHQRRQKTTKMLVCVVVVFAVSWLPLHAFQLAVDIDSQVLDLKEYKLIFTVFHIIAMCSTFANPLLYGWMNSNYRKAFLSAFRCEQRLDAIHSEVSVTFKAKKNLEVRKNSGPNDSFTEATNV
# [25] = target: Muscarinic acetylcholine receptor M3 (Homo sapiens) (UniProt P20309); test: Binding affinity to recombinant human muscarinic M3 receptor at 10 uM after 60 mins by scintillation counting analysis relative to control
# [26] = target: Vasopressin V1a receptor (Homo sapiens) (UniProt P37288); test: Binding affinity to recombinant human V1A receptor at 10 uM after 60 mins by scintillation counting analysis relative to control
# [27] = target: Muscarinic acetylcholine receptor M5 (Homo sapiens) (UniProt P08912); test: Binding affinity to recombinant human muscarinic M5 receptor at 10 uM after 60 mins by scintillation counting analysis relative to control
# [28] = target: Interstitial collagenase (Homo sapiens) (UniProt P03956); test: Binding affinity to human MMP1 at 10 uM after 20 mins by fluorescence assay relative to control
# [29] = species: Homo sapiens; test: Binding affinity to delta-2-opioid receptor (unknown origin) at 10 uM relative to control
# [30] = target: Pituitary adenylate cyclase-activating polypeptide type I receptor (Homo sapiens) (UniProt P41586); test: Binding affinity to recombinant human PACAP receptor at 10 uM after 120 mins by scintillation counting analysis relative to control
# [31] = target: Disintegrin and metalloproteinase domain-containing protein 17 (Homo sapiens) (UniProt P78536); test: Binding affinity to recombinant human TACE at 10 uM after 5 mins by fluorescence assay relative to control
# Disintegrin and metalloproteinase domain-containing protein 17 (Homo sapiens), sequence (P78536 whole entry, the tested form may be a part): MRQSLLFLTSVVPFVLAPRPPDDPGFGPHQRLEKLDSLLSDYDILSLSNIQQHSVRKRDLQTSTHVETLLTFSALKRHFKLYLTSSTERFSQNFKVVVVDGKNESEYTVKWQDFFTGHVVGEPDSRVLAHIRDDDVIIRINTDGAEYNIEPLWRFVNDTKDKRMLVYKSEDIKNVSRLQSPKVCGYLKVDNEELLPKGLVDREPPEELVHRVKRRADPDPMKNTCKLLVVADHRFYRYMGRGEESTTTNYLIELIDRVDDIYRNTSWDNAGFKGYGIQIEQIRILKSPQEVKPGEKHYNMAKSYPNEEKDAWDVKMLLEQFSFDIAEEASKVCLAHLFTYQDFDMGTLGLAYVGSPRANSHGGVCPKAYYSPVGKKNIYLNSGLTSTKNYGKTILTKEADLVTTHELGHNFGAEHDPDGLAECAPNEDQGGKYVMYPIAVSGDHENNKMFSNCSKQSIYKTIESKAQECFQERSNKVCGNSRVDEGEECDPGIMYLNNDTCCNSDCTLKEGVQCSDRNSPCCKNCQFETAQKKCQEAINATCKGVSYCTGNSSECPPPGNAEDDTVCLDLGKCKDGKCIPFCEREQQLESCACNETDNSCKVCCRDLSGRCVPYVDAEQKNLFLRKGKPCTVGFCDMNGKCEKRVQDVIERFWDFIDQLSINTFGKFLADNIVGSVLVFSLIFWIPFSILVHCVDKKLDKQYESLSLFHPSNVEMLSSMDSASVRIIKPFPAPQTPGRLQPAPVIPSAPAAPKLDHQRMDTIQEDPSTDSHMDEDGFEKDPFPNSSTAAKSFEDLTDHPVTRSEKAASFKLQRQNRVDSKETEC
# [32] = target: Somatostatin receptor (Homo sapiens) (UniProt P35346+P30874+P31391+P30872+P32745); test: Binding affinity to somatostatin receptor (unknown origin) at 10 uM relative to control; assay type: protein assay
# [33] = target: Kinesin-like protein KIF11 (Homo sapiens) (UniProt P52732); test: Binding affinity to recombinant human EG5 at 10 uM after 10 mins by spectrophotometric analysis relative to control
# [34] = species: Bos taurus; test: Binding affinity to bovine PDE6 at 10 uM after 60 mins by scintillation counting analysis relative to control
# [35] = target: 3',5'-cyclic-AMP phosphodiesterase 4D (Homo sapiens) (UniProt Q08499); test: Binding affinity to recombinant human PDE4D2 at 10 uM after 20 mins by scintillation counting analysis relative to control
# MAO-A, sequence (P21397 whole entry): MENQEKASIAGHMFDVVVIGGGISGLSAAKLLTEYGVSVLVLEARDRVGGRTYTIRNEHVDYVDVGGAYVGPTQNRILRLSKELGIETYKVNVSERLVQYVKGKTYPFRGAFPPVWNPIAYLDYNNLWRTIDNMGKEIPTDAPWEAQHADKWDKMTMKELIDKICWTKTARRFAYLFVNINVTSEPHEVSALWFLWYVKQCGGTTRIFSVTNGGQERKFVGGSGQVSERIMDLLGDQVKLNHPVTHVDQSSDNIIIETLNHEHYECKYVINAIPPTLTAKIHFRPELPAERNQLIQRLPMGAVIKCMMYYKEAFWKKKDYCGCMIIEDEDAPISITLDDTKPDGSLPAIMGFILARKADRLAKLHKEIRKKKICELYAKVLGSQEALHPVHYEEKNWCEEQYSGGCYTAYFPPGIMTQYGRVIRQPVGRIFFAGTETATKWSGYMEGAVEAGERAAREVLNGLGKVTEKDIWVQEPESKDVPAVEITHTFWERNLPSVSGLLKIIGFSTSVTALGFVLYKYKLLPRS
compound,measurement,setting,value
CCOc1c(Cl)cc(C(=O)Nc2ccc(C(=O)O)c(C)c2)cc1OC(C)C,Activity,[1],< 25%
same,"activity at 20 min, 10 µM",[2],≤ 25%
same,Activity,[3],Non-Toxic
same,Activity,[4],< 25%
same,Activity,[5],< 25%
same,Activity,[6],< 25%
same,Activity,[7],< 25%
same,Activity,[8],< 25%
same,Activity,[9],< 25%
same,Activity,[10],< 25%
same,Activity,[11],< 25%
same,Activity,[12],< 25%
same,Activity,[13],< 25%
same,Activity,[14],< 25%
same,Activity,[15],< 25%
same,Activity,[16],< 25%
same,Activity,[17],< 25%
same,Activity,[18],< 25%
same,Activity,[19],< 25%
same,Activity,[20],< 25%
same,Activity,[21],< 25%
same,Activity,[22],< 25%
same,Activity,[23],< 25%
same,Activity,[24],< 25%
same,Activity,[25],< 25%
same,Activity,[26],< 25%
same,Activity,[27],< 25%
same,Activity,[28],< 25%
same,Activity,[29],< 25%
same,Activity,[30],< 25%
same,Activity,[31],< 25%
same,Activity,[32],< 25%
same,Activity,[33],< 25%
same,Activity,[34],< 25%
same,Activity,[35],< 25%
